Assays:
[1] = system: RKO (RKOp27) human colon adenocarcinoma cells; experiment: Alamar Blue cell viability assay, anti-proliferative/cytotoxic activity, RKO p27 uninduced; format: cell-based; conditions: RKOp27, 72 h, proliferating cells, absence of the inducer Ponasterone A, 72 hours incubation
Description: The anti-proliferative/cytotoxic activity of the compounds described herein, can be tested on subdlones of RKO (RKOp27) human colon adenocarcinoma cells (Schmidt et al., Oncogene 19, 2423-2429; 2000) using the Alamar Blue cell viability assay (described in O'Brien et al. Eur J Biochem 267, 5421-5426, 2000). The compounds are dissolved as 20 mM solutions in dimethylsulfoxide (DMSO) and subsequently diluted in semi-logarithmic steps. DMSO dilutions are further diluted 1:100 into Dulbecco's modified Eagle's medium (DMEM) containing 10% fetal calf serum to a final concentration twice as much as the final concentration in the test. RKO subclones are seeded into 96 well flat bottom plates at a density of 4000 cells per well in a volume of 50 µl per well. 24 hours after seeding the 50 μl each of the compound dilutions in DMEM medium are added into each well of the 96 Well plate. Each compound dilution is tested as quadruplicates. Wells containing untreated control cells are filled with 50 μl DMEM medium containing 1% DMSO. The cells are then incubated with the substances for 72 hours at 37° C. in a humidified atmosphere containing 5% carbon dioxide. To determine the viability of the cells, 10 μl of an Alamar Blue solution (Biosource) are added and the fluorescence is measured at an extinction of 544 nm and an emission of 590 nm. For the calculation of the cell viability the emission value from untreated cells is set as 100% viability and the emission rates of treated cells are set in relation to the values of untreated cells. Viabilities are expressed as % values.
The corresponding IC50 values of the compounds for anti-proliferative/cytotoxic activity are determined from the concentration-effect curves.
Representative IC50 values for anti-proliferation/cytotoxicity determined for the compounds mentioned and numbered as Examples in the examples above follow from the following table A (1st column), in which the numbers of the compound correspond to the numbers of the examples. Any or all of the compounds according to the present invention which are listed in the Table A, as well as their salts, are to be mentioned as a particular interesting subject of the present invention.

[2] = system: RKO colon adenocarcinoma cells (RKOp27) arrested by expression of ectopic p27Kip1; experiment: Alamar Blue cell viability assay, cell cycle specific mode of action, RKO p27 induced (arrested by Ponasterone A-induced p27Kip1); format: cell-based; conditions: Homo sapiens, RKOp27, 72 h, cells arrested by p27Kip1 induced with 10 μM Ponasterone A, 72 hours incubation
Description: To determine the cell cycle specific mode of action, subdlones of RKO colon adenocarcinoma cells (RKOp27 or RKOp21 as described by Schmidt et al. in Oncogene 19, 2423-2429; 2000) are seeded into 96 well flat bottom plates at a density of 16000 cells per well in a volume of 50 μl per well in DMEM growth medium with 10% FCS containing 10 μM Ponasterone A. 24 hours after seeding the 50 μl each of the compound dilutions in DMEM medium are added into each well of the 96 Well plate. Each compound dilution is tested as quadruplicates. Wells containing untreated control cells are filled with 50 μl DMEM medium containing 1% DMSO. The cells are then incubated with the substances for 72 hours at 37° C. in a humidified atmosphere containing 5% carbon dioxide. To determine the viability of the cells, 10 μl of an Alamar Blue solution (Biosource) are added and the fluorescence was measured at an extinction of 544 nm and an emission of 590 nm. For the calculation of the cell viability the emission value from untreated cells is set as 100% viability and the emission rates of treated cells are set in relation to the values of untreated cells. Viabilities are expressed as % values. Viability is compared of proliferating cells grown in the absence of the inducer Ponasterone A, versus viability of cells arrested by the expression of ectopic p27Kip1 induced by Ponasterone A. The data of this experimental setting are summarized in table A (2nd column).

SMILES	IC50 [1]	IC50 [2]
N#Cc1c(NC(=O)c2ccccc2)sc2c1CCN(C(=O)Cc1ccccn1)C2 [Compound 42, N-[3-Cyano-6-(2-pyridin-2-yl-ethanoyl)-4,5,7-tetrahydro-thieno[2,3-c]pyridin-2-yl]-benzamide]	≤ 3 µM	> 60 µM
Cc1ncsc1CCOC(=O)N1CCc2c(sc(NC(=O)c3ccccc3)c2C#N)C1 [Compound 17]	≤ 2 µM	> 100 µM
N#Cc1c(NC(=O)c2ccccc2)sc2c1CCN(C(=O)Oc1ccccc1)C2 [Compound 59, 3-Cyano-2-[(1-phenyl-methanoyl)-amino]-4,7-dihydro-5H-thieno[2,3-c]pyridine-6-carboxylic acid phenyl ester]	≤ 3 µM	> 60 µM
N#Cc1c(NC(=O)c2ccccc2)sc2c1CCN(C(=O)NCCc1ccncc1)C2 [Compound 80, 3-Cyano-2-[(1-phenyl-methanoyl)-amino]-4,7-dihydro-5H-thieno[2,3-c]pyridine-6-carboxylic acid (2-pyridin-4-yl-ethyl)-amide]	≤ 3 µM	> 60 µM
N#Cc1c(NC(=O)c2ccccc2)sc2c1CCN(C(=O)OCCN1CCOCC1)C2 [Compound 67, 3-Cyano-2-[(1-phenyl-methanoyl)-amino]4,7-dihydro-5H-thieno[2,3-c]pyridine-6-carboxylic acid 2-morpholin-4-yl-ethyl ester]	≤ 3 µM	> 60 µM
N#Cc1c(NC(=O)c2ccccc2)sc2c1CCN(C(=O)CCc1nccs1)C2 [Compound 33, N-[3-Cyano-6-(3thiazol-2-yl-propanoyl)-4,5,6,7-tetrahydro-thieno[2,3-c]pyridin-2-yl]-benzamide]	≤ 3 µM	> 60 µM
N#Cc1c(NC(=O)c2ccccc2)sc2c1CCN(C(=O)OCCc1ccccc1)C2 [Compound 65, 3-Cyano-2-[(1-phenyl-methanoyl)-amino]-4,7-dihydro-5H-thieno[2,3-c]pyridine-6-carboxylic acid phenethyl ester]	≤ 3 µM	> 60 µM
COC(=O)COC(=O)N1CCc2c(sc(NC(=O)c3ccccc3)c2C#N)C1 [Compound 93, 3-Cyano-2-[(1-phenyl-methanoyl)-amino]-4,7-dihydro-5H-thieno[2,3-c]pyridine-6-carboxylic acid methoxycarbonylmethyl ester]	≤ 3 µM	> 100 µM
N#Cc1c(NC(=O)c2ccccc2)sc2c1CCN(C(=O)CCCc1c[nH]c3ccccc13)C2 [Compound 37, N-[3-Cyano-6-(4-1H-indol-3-yl-butanoyl)-4,5,6,7-tetrahydro-thieno[2,3-c]pyridin-2-yl]-benzamide]	≤ 3 µM	> 60 µM
CCCCCCC(=O)N1CCc2c(sc(NC(=O)c3ccccc3)c2C#N)C1 [Compound 6]	≤ 2 µM	> 100 µM
N#Cc1c(NC(=O)c2ccccc2)sc2c1CCN(C(=O)CCc1cccnc1)C2 [Compound 41, N-[3-Cyano-6-(3-pyridin-3-yl-propanoyl)-4,5,6,7-tetrahydro-thieno[2,3-c]pyridin-2-yl]-benzamide]	≤ 3 µM	> 60 µM
N#Cc1c(NC(=O)c2ccccc2)sc2c1CCN(C(=O)OCc1ccncc1)C2 [Compound 66, 3-Cyano-2-[(1-phenyl-methanoyl)-amino]-4,7-dihydro-5H-thieno[2,3-c]pyridine-6-carboxylic acid pyridin-4-ylmethyl ester]	≤ 3 µM	> 60 µM
N#Cc1c(NC(=O)c2ccccc2)sc2c1CCN(C(=O)OCCc1ccccn1)C2 [Compound 68, 3-Cyano-2-[(1-phenyl-methanoyl)-amino]-4,7-dihydro-5H-thieno[2,3-c]pyridine-6-carboxylic acid 2-pyridin-2-yl-ethyl ester]	≤ 3 µM	> 60 µM
CCOC(=O)N1CCc2c(sc(NC(=O)c3ccc(Cl)cc3)c2C#N)C1 [Compound 47, 2-{[1-(4-Chloro-phenyl)-methanoyl]-amino}-3-cyano-4,7-dihydro-5H-thieno[2,3-c]pyridin-6-carboxylic acid ethyl ester]	≤ 3 µM	> 60 µM
COc1cccc(C(=O)Nc2sc3c(c2C#N)CCN(C(=O)OC(C)(C)C)C3)c1 [Compound 3, N-(6-tert.-Butyloxycarbonyl-3-cyano-4,5,6,7-tetrahvdro-thieno[2,3-c]pyridin-2-yl)-3-methoxybenzamide]	≤ 2 µM	> 100 µM
CCOC(=O)N1CCc2c(sc(NC(=O)c3ccccc3C)c2C#N)C1 [Compound 52, 3-Cyano-2-[(1-o-tolyl-methanoyl)-amino]-4,7-dihydro-5H-thieno[2,3-c]pyridine-6-carboxylic acid ethyl ester]	≤ 3 µM	> 60 µM
CCOC(=O)N1CCc2c(sc(NC(=O)c3cc(OC)cc(OC)c3)c2C#N)C1 [Compound 19, N-(6-Ethoxycarbonyl-3-cyano-4,5,6,7-tetrahydro-thieno[2,3-c]pyridin-2-yl)-3,5-dimethoxybenzamide]	≤ 2 µM	> 100 µM
N#Cc1c(NC(=O)c2ccccc2)sc2c1CCN(C(=O)NCCc1ccccn1)C2 [Compound 99, 3-Cyano-2-[(1-phenyl-methanoyl)-amino]-4,7-dihydro-5H-thieno[2,3-c]pyridine-6-carboxylic acid (2-pyridin-2-yl-ethyl)-amide]	≤ 3 µM	> 100 µM
N#Cc1c(NC(=O)c2ccccc2)sc2c1CCN(C(=O)CCc1c[nH]c3ccccc13)C2 [Compound 30, N-[3-Cyano-6-(3-1H-indol-3-yl-propanoyl)-4,5,6,7-tetrahydro-thieno[2,3-c]pyridin-2-yl]-benzamide]	≤ 3 µM	> 60 µM
COCCC(=O)N1CCc2c(sc(NC(=O)c3ccccc3)c2C#N)C1 [Compound 7, N-(3-Cyano-7-methoxyethylcarbonyl-4,5,6,7-tetrahydro-thien[2,3-c]pyridin-2-yl)-benzamide]	≤ 2 µM	> 100 µM
N#Cc1c(NC(=O)c2ccccc2)sc2c1CCN(C(=O)OCCCc1ccncc1)C2 [Compound 69, 3-Cyano-2-[(1-phenyl-methanoyl)-amino]-4,7-dihydro-5H-thieno[2,3-c]pyridine-6-carboxylic acid 3-pyridin-4-yl-propyl ester]	≤ 3 µM	> 60 µM
COC(=O)CCC(=O)N1CCc2c(sc(NC(=O)c3ccccc3)c2C#N)C1 [Compound 22, 4-{3-Cyano-2-[(1-phenyl-methanoyl)-amino]-4,7-dihydro-5H-thieno[2,3-c]pyridin-6-yl}-4-oxo-butyric acid methyl ester]	≤ 2 µM	> 100 µM
CC(=O)N1CCc2c(sc(NC(=O)c3ccccc3)c2C#N)C1 [Compound 20, N-(6-Acetyl-3-cyano-4,5,6,7-tetrahydro-thieno[2,3-c]pyridin-2-yl)-benzamide]	3 µM	> 100 µM
N#Cc1c(NC(=O)c2ccccc2)sc2c1CCN(C(=O)Cc1cccnc1)C2 [Compound 35, N-[3-Cyano-6-(2-pyridin-3-yl-ethanoyl)-4,5,6,7-tetrahydro-thieon[2,3-c]pyridin-2-yl]-benzamide]	≤ 3 µM	> 60 µM
CCCC(=O)N1CCc2c(sc(NC(=O)c3ccccc3)c2C#N)C1 [Compound 5]	≤ 2 µM	80 µM
CCOC(=O)N1CCc2c(sc(NC(=O)c3ccccc3)c2C#N)C1 [Compound 18, N-(6-Ethoxycarbonyl-3-cyano-4,5,6,7-tetrahydro-thieno[2,3-c]pyridin-2-yl)-benzamide]	≤ 2 µM	> 100 µM
N#Cc1c(NC(=O)c2ccccc2)sc2c1CCN(C(=O)NCCc1ccc([N+](=O)[O-])cc1)C2 [Compound 82, 3-Cyano-2-[(1-phenyl-methanoyl)amino]-4,7-dihydro-5H-thieno[2,3-c]pyridine-6-carboxylic acid [2-(4-nitro-phenyl)-ethyl]-amide]	≤ 3 µM	> 60 µM
